Experimental data published in US6923951B2, “Non-invasive localization of a light-emitting conjugate in a mammal” (priority 1994, dated 2005).

Assays:
HIV LTR = test: DMSO induction of HIV LTR-driven luciferase expression in transgenic mice; assay type: in vivo, mouse
From the text: Transgenic mice containing a construct composed of the regulatory portion of the HIV LTR (U3 region) upstream of the coding sequence of the firefly luciferase gene were generated and evaluated for the emission of photons after transmission through tissues. A diagram of the construct is shown at the bottom of FIG. 13. Numbers along the construct indicate nucleotide positions relative to the start of transcription. Sequences matching known motifs of cellular transcription factors are indicated with the names of the factors. Transcription from the HIV LTR was activated in the right ear of each two animals with a single topical application of dimethyl sulfoxide (DMSO). The animal on the left in FIG. 13 was given 150 μl of an aqueous solution of the substrate luciferin (50 mg/ml) via intraperitoneal (i.p.) injection. The animal on the right was not given substrate. 20 min. post treatment with substrate the animals were imaged as described for the plate in FIG. 12 with a 20 min. integration time. […] This technology allows for the temporal and spatial analyses of transcriptional activity in living animals.
The left half of the shaved dorsal surface of the transgenic animals and the left ear were treated twice daily for two days with DMSO to activate expression of the HIV-1 LTR. Luciferin was applied topically over the entire surface of the back and both ears, and animals were imaged immediately after addition of substrate.
This signal is assumed to be due to ingestion of DMSO during grooming (FIG. 17).

SL1344lux Salmonella = test: Effects of ciprofloxacin treatment on bioluminescence from SL1344lux Salmonella in orally inoculated mice; assay type: in vivo, Salmonella typhimurium
Experimental: Effects of Ciprofloxacin on Salmonella Infection. […] Mice are orally inoculated with SL1344lux and treated with […] of ciprofloxacin, an antibiotic effective against Salmonella infections. The mice are imaged at selected time periods following treatment, and the extent of infection is quantitated by measuring photon emission. Photon emission in treated mice is compared to values before the initiation of treatment, and to values from control mice that had been infected, but not treated. Results from one such experiment are shown in FIGS. 11A, 11B, 11C, 11D, and 11E and discussed in Example 10.
Animals or objects to be imaged were immobilized in a light-tight box containing a door and a charge-coupled device (CCD) camera with a two stage microchannel intensifier head (model C2400-40, Hamamatsu). The camera was attached, via cables leading out of the box, to an “ARGUS 50” image processor (Hamamatsu).
Bioluminescence images were generated by integrating photons for a selected period of time, typically 5 minutes. […]
FIGS. 11B and 11D show composite images of representative animals from the control and treated groups, respectively, immediately before initiation of treatment of the experimental group. […] The total number of photons detected over the abdominal area were determined, normalized to the value at t=0, and plotted in FIG. 11A with respect to time post-treatment.

[1] = system: dermal cells in transgenic mice
Experimental: In order to optimize delivery of substrate, the substrate was topically delivered to dermal cells. The HIV LTR was induced in the skin of mice with twice daily treatments of DMSO over the entire surface of the back and the right ear for two consecutive days. Substrate was applied to the skin in solutions prepared in DMSO. Concentrations included 200 mM, 100 mM, 50 mM, 25 mM, and 12.5 mM. 5 μl of each concentration were spotted, in quadruplicate, on the backs using a multichannel pipette with the highest concentrations near the head. 5 μl of the 50 mM solution was applied to each ear. 2 min. after application the animal was imaged as described in FIG. 12. […] Solutions of 25% H2O in DMSO to 100% H2O were tested.
The experiment of induction of luciferase expression in ears and systemic luciferin delivery of Example 14 was repeated with topical administration of substrate in 100% DMSO (FIG. 15). […] See, FIGS. 13 and 15.

Q: How did the “Bioluminescence from internal tissues” value (HIV LTR; animals treated with DMSO on one ear only) turn out when `C[S+](C)[O-]` [DMSO, dimethyl sulfoxide] was run?
A: Its value is “Bioluminescence was detectable from the abdomens”.

Q: And the “Bioluminescence after unilateral DMSO treatment” value (HIV LTR; left half of shaved dorsal surface and left ear treated twice daily for two days, luciferin topical over back and both ears)?
A: Its value is “Unilateral emission of bioluminescence corresponding to the induced region”.

Q: What about the “Bioluminescence from the DMSO-induced ear” value (HIV LTR; single topical application of DMSO on right ear, luciferin 150 μl of 50 mg/ml i.p., imaged 20 min. post substrate) of the same compound?
A: The value was “light emission over the right ear”.

Q: `O=C(O)c1cn(C2CC2)c2cc(N3CCNCC3)c(F)cc2c1=O` [ciprofloxacin] was tested. Which “Bioluminescence over the abdomen” value (SL1344lux Salmonella; Balb/c mice orally inoculated with SL1344lux, at 8 days p.i. 100 mg ciprofloxacin hydrochloride i.p. (3 mg/kg body weight), 5.5 h after initiation of treatment) did it give?
A: Its value is “reduced to undetectable levels”.

Q: And the “Infection (photon emission) compared to time zero and to untreated control mice” value (SL1344lux Salmonella; mice orally inoculated with SL1344lux, treated with 100 mg of ciprofloxacin)?
A: Its value is “significantly reduced”.

Q: For `O=C(O)[C@H]1CSC(c2nc3ccc(O)cc3s2)=N1` [luciferin], which “Bioluminescence from spots containing 200 mM luciferin” value ([1]; 5 μl spots in DMSO on DMSO-induced back skin) is on record?
A: Its value is “roughly equivalent to that from the 100 mM spots”.

Q: What about the “Bioluminescent response versus topical luciferin concentration” value ([1]; 5 μl spots of luciferin in DMSO on DMSO-induced back skin, imaged 2 min. after application) of the same compound?
A: The value was “increase linearly over the concentrations from 12.5 mM to 100 mM”.

Q: And the “Bioluminescence from solutions of luciferin containing water” value ([1]; mouse, in vivo)?
A: Its value is “no detectable bioluminescence”.

Q: And the “Time of peak light emission, systemic substrate” value ([1]; mouse, in vivo)?
A: The value was 20 to 30 min.

Q: And the “Time of peak light emission, topical substrate” value ([1]; mouse, in vivo)?
A: The value was “immediately after topical treatment”.
